Patent US6323219A, “Methods for treating immunomediated inflammatory disorders” (Ortho-McNeil Pharmaceutical, Inc., priority 1999, dated 2001)
Where two headings read alike, the source gives them in different places.

What was measured:
in vivo = assay: in vivo; parameters: species or system male rats (Long Evans); details: rat, iv
Protocol: Since the compounds of the formula (l) are also potent thrombin inhibitors (see U.S. Pat. No. 5,523,308), an ex vivo thrombin assay was conducted to determine the duration of action of the compounds of Formula I. For this i.v. assay male rats (Long Evans, 350-500 g) were implanted with a teflon cannulae via the femoral artery while under anesthesia (pentobarbital i.p., 35 mg/kg). After surgery, the animals were individually housed in standard cages, fed with rat chow (Hanlan, #8604) and continuously infused with physiological saline to maintain arterial patency, (0.5 mL/h, intra arterial) using a spring-shielded swiveling tether connected to an infusion system. The animals were allowed to recover for at least 24 h after the surgical procedure.
A sample of blood was drawn from the animals 15 min before dosing with the inhibitor (0.25 mL blood is drawn into a syringe containing 0.025 mL of Sigma sodium citrate). The test compound was dispersed in water and delivered to the animal (0.25 mL) via the femoral vein. The inhibitor was given at a concentration (mg/mL) which produced 80% inhibition of VO in a plasma sample at 5 min after infusion. Blood was drawn from the arterial line (blood:sodium citrate, 0.25/0.025 mL ) at regular intervals after dosing (5, 10, 15, 30, 60 and 120 min) and placed in a centrifuge tube. A plasma sample was obtained by centrifuging the blood at 10,000 rpm for 5 min. This sample is analyzed for thrombin inhibition using the chromogenic assay, described below.
The rate of increase in absorbance at 405 nm of synthetic peptides (50 μM Spectozyme® TH (H-D-HHT-Ala-Arg-pNA-2AcOH), American Diagnostica) is measured in the presence of plasma with a microplate reader (Molecular Devices) at 37° C. using an aqueous buffer (10 mM Tris, 10 mM Hepes, 150 mM NaCl, 0.1% PEG; pH 7.4). The buffer was added to the plasma samples (1:1) dilution prior to delivery to the microplate (1:5 and 1:50 for final plasma dilutions of 1:10 and 1:100 respectively) followed by the enzyme (1 nM human α thrombin). Datum was collected over a 30 min period and the initial rate of substrate hydrolysis (V0 (mOD/min)) was calculated with an analysis program (Softmax, Molecular Devices).
The time to half plasma elimination (t 1/2) was calculated from the slope of VO vs. time, using the following equation: […]. These datum are presented in Table L. In Table L, the compound # corresponds to the compound number described in U.S. Pat. No. 5,523,308.

[1] = Bioavailability, ex vivo thrombin inhibition assay after i.v. and p.o. dosing; assay type: in vivo; details: rat, plasma, po, male rats
Protocol: Bioavailability was determined by an ex vivo thrombin inhibition assay which incorporated hydrolysis rates from drug administered both i.v. and p.o. In this assay male rats were prepared as described above with a Teflon tube implanted in their femoral artery. Blood was drawn from the animals 15 min before dosing with the inhibitor (0.25 mL blood was drawn into a syringe containing 0.025 mL of Sigma sodium citrate) and set aside for analysis. The test compound was dispersed in water (0.3-3.0 mg/mL final conc.) and delivered to the animals (0.25 mL) either i.v. or p.o.. […] This sample was analyzed for thrombin inhibition using the chromogenic assay, described below.
The rate of increase in absorbance at 405 nm of synthetic peptides (50 μM Spectozyme® TH (H-D-HHT-Ala-Arg-pNA-2AcOH), American Diagnostica) was measured in the presence of plasma with a microplate reader (Molecular Devices) at 37° C. using an aqueous buffer (10 mM Tris, 10 mM Hepes, 150 mM NaCI, 0.1% PEG; pH 7.4). […] Datum were collected over a 30 min period and the initial rate of substrate hydrolysis (VO (mOD/min)) was calculated with an analysis program (Softmax, Molecular Devices). […]
The percentage of thrombin inhibition in the treated animals was calculated by comparing the V0 prior to treatment with the V0 obtained from samples collected after treatment. […]

human Lung Tryptase = assay: Tryptase IC50 Method; assay type: biochemical; details: 37° C., 1.0 nM enzyme, 500 μM substrate
Protocol: (§1) The enzyme reaction is started by the addition of enzyme ([E]: 1.0 nM human Lung Tryptase; Cortex Biochem CP3033). Data is collected over a period of 30 min. and the initial rate of substrate hydrolysis (Vo (mOD/min)) is calculated. Inhibition is calculated by comparing to wells containing no inhibitor (vehicle) and IC50 s are determined using a four parameter fit logistics model. […] The enzyme reaction is started by the addition of enzyme ([E]: 10.0 nM Human Skin Chymase; Cortex Biochem CPl 129). Data is collected over a period of 30 min. and the initial rate of substrate hydrolysis (Vo (mOD/min)) is calculated. Inhibition is calculated by comparing to wells containing no inhibitor (vehicle) and IC50 s are determined using a four parameter fit logistics model. Chymase 10 μM Screen Method: The optical density at 405 nm due to hydrolysis of synthetic chromogenic peptide substrates ([S]: 500 μM Suc-Ala-Ala-Pro-Phe-pNA; Bachem L-1400) is measured in the presence and absence of inhibitor compounds of formula (I) with a microplate reader at room temperature. The enzyme reaction is started by the addition of enzyme ([E]: 5.0 nM Human Skin Chymase; Cortex Biochem CP1129), and 3 hours following that addition data is collected. After subtracting background (no enzyme addition), inhibition is calculated by comparing to wells containing no inhibitor (vehicle).

Human Skin Chymase [2] = target: T1, Human Skin Chymase (Homo sapiens, UniProt P23946); assay: Chymase 10 μM Screen Method; assay type: biochemical; details: read-out: Chymase % Inhibition (10 μM)
T1 construct: purchased Cortex Biochem CP1129; host or cells: human skin
T1 sequence (P23946 22-247): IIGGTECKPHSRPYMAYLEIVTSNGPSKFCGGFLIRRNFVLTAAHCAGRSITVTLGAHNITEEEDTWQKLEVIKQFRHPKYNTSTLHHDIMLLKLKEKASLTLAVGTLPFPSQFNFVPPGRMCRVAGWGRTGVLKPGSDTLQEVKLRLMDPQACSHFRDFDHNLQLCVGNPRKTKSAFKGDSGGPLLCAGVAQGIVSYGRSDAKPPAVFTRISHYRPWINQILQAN
Protocol: The enzyme reaction is started by the addition of enzyme ([E]: 1.0 nM human Lung Tryptase; Cortex Biochem CP3033). Data is collected over a period of 30 min. and the initial rate of substrate hydrolysis (Vo (mOD/min)) is calculated. Inhibition is calculated by comparing to wells containing no inhibitor (vehicle) and IC50 s are determined using a four parameter fit logistics model. […] Data is collected over a period of 30 min. and the initial rate of substrate hydrolysis (Vo (mOD/min)) is calculated. Inhibition is calculated by comparing to wells containing no inhibitor (vehicle) and IC50 s are determined using a four parameter fit logistics model. […] The enzyme reaction is started by the addition of enzyme ([E]: 5.0 nM Human Skin Chymase; Cortex Biochem CP1129), and 3 hours following that addition data is collected. After subtracting background (no enzyme addition), inhibition is calculated by comparing to wells containing no inhibitor (vehicle).

Human Skin Chymase [3] = target: T1, Human Skin Chymase; assay: Chymase IC50 Method; assay type: biochemical; details: 37° C., 10.0 nM enzyme, 500 μM substrate
Protocol: as §1

SMILES: CN[C@H](Cc1ccccc1)C(=O)N1CCC[C@H]1C(=O)N[C@@H](CCCNC(=N)N)C(=O)c1nc2ccccc2s1 [Compound 1]
- half-life (in vivo): 19 min
- bioavailability [1]: 1.2%
- IC50 (human Lung Tryptase): 7.5 nM
- inhibition at 10 µM (Human Skin Chymase [2]; 10 μM, room temperature, 5.0 nM enzyme, 3 hours): 2%

SMILES: CN[C@H](Cc1ccccc1)C(=O)N1CCC[C@H]1C(=O)N[C@@H](Cc1ccccc1)C(=O)c1nc2ccccc2s1 [Compound 38]
- IC50 (Human Skin Chymase [3]): 2700 nM
- inhibition at 10 µM (Human Skin Chymase [2]): 94%
